Laboratory results as given in patent publication US20200246316A1, “METHODS OF TREATING POST-SURGICAL PAIN WITH A THIAZOLINE ANTI-HYPERALGESIC AGENT” (CERSCI THERAPEUTICS, INC., priority 2019, published 2020).
Where a name gives a salt, the structure may show the parent alone. Read-outs that look alike come from different tables or passages of the source.

Assay: Rat 28-day GLP repeat dose PO study (toxicokinetics)
Type: in vivo
Experimental: The vehicle was 0.5% HPMC. There were 15 rats/sex in the control and high dose groups (5/sex for a 14-day recovery period) while the low and mid doses consisted of 10 rats/sex. Satellite groups of rats/sex/group for toxicokinetics were included.
Rats in Group 1 (Vehicle Control) were bled once at approximately 1 hour post-dose on those days.

[1] = female, rat, in vivo, po, 50 mg/kg, Day 1, F, 50 mg/kg PO
[2] = female, rat, in vivo, po, 500 mg/kg, Day 14, F, 500 mg/kg PO
[3] = female, rat, in vivo, po, 500 mg/kg, Day 28, F, 500 mg/kg PO
[4] = female, rat, in vivo, po, 1000 mg/kg, Day 1, F, 1000 mg/kg PO
[5] = female, rat, in vivo, po, 1000 mg/kg, Day 14, F, 1000 mg/kg PO
[6] = female, rat, in vivo, po, 1000 mg/kg, Day 28, F, 1000 mg/kg PO
[7] = female, rat, in vivo, po, 2000 mg/kg, Day 1, F, 2000 mg/kg PO
[8] = female, rat, in vivo, po, 2000 mg/kg, Day 14, F, 2000 mg/kg PO
[9] = female, rat, in vivo, po, 2000 mg/kg, Day 28, F, 2000 mg/kg PO

SMILES: CC1(C)SC(Nc2ccccc2O)=N[C@@H]1C(=O)O [Compound 1, (R)-2-(2-hydroxyphenylamino)-5,5-dimethyl-4,5-dihydrothiazole-4-carboxylic acid mono-hydrochloride]
- Cmax (28-day pivotal rat study, at some doses): over 100 μg/mL
- Tmax (28-day study, rat): ≤ 1 h
- overall mean t1/2 (all sexes, days, dose levels): 4.24 h
- Tmax (both sexes, rat, in vivo, po): 0.5 to 2 h
- half-life (both sexes, rat, in vivo, po): 3 to 8 h
- Tmax (both sexes, rat, in vivo, po, Days 1, 14 and 28, 500 to 2000 mg/kg PO, read-out: median tmax): 1 h
- Tmax (both sexes, rat, in vivo, po, Days 14 and 28, all dose levels and sexes, read-out: overall median tmax): 1 h
- overall mean V/F (both, rat, in vivo): 12.5 L/kg
- overall mean CL/F (both, rat, in vivo, po): 35.2 mL/min/kg
- AUC [1]: 298 µg·h/mL
- AUC(0-inf) [1]: 299 µg·h/mL
- CL/F (female, rat, in vivo, po, 50 mg/kg, Day 1, F, 50 mg/kg PO, read-out: CL/F (CLz/F) (converted)): 27.8 mL/min/kg
- Cmax (female, rat, in vivo, po, 50 mg/kg, Day 1, F, 50 mg/kg PO, read-out: Cmax): 74.8 µg/mL
- Vd/F (female, rat, in vivo, po, 50 mg/kg, Day 1, F, 50 mg/kg PO, read-out: V/F (Vz/F)): 8.1 L/kg
- half-life (female, rat, in vivo, po, 50 mg/kg, Day 1, F, 50 mg/kg PO, read-out: t1/2 (converted)): 3.36 h
- AUC [2]: 223 µg·h/mL
- AUC(0-inf) [2]: 225 µg·h/mL
- CL/F (female, rat, in vivo, po, 500 mg/kg, Day 14, F, 500 mg/kg PO, read-out: CL/F (CLss/F) (converted)): 37.5 mL/min/kg
- Cmax (female, rat, in vivo, po, 500 mg/kg, Day 14, F, 500 mg/kg PO, read-out: Cmax): 75 µg/mL
- Vd/F (female, rat, in vivo, po, 500 mg/kg, Day 14, F, 500 mg/kg PO, read-out: V/F (Vss/F)): 13.6 L/kg
- half-life (female, rat, in vivo, po, 500 mg/kg, Day 14, F, 500 mg/kg PO, read-out: t1/2 (converted)): 4.2 h
- Tmax (female, rat, in vivo, po, 500 mg/kg, Day 14, F, 500 mg/kg PO, read-out: tmax): 1 h
- AUC [3]: 297 µg·h/mL
- AUC(0-inf) [3]: 303 µg·h/mL
- CL/F (female, rat, in vivo, po, 500 mg/kg, Day 28, F, 500 mg/kg PO, read-out: CL/F (CLss/F) (converted)): 28 mL/min/kg
- Cmax (female, rat, in vivo, po, 500 mg/kg, Day 28, F, 500 mg/kg PO, read-out: Cmax): 86.4 µg/mL
- Vd/F (female, rat, in vivo, po, 500 mg/kg, Day 28, F, 500 mg/kg PO, read-out: V/F (Vss/F)): 11.2 L/kg
- half-life (female, rat, in vivo, po, 500 mg/kg, Day 28, F, 500 mg/kg PO, read-out: t1/2 (converted)): 4.62 h
- Tmax (female, rat, in vivo, po, 500 mg/kg, Day 28, F, 500 mg/kg PO, read-out: tmax): 0.5 h
- AUC [4]: 788 µg·h/mL
- AUC(0-inf) [4]: 794 µg·h/mL
- CL/F (female, rat, in vivo, po, 1000 mg/kg, Day 1, F, 1000 mg/kg PO, read-out: CL/F (CLz/F) (converted)): 21 mL/min/kg
- Cmax (female, rat, in vivo, po, 1000 mg/kg, Day 1, F, 1000 mg/kg PO, read-out: Cmax): 108 µg/mL
- Vd/F (female, rat, in vivo, po, 1000 mg/kg, Day 1, F, 1000 mg/kg PO, read-out: V/F (Vz/F)): 6.15 L/kg
- half-life (female, rat, in vivo, po, 1000 mg/kg, Day 1, F, 1000 mg/kg PO, read-out: t1/2 (converted)): 3.39 h
- AUC [5]: 430 µg·h/mL
- AUC(0-inf) [5]: 437 µg·h/mL
- CL/F (female, rat, in vivo, po, 1000 mg/kg, Day 14, F, 1000 mg/kg PO, read-out: CL/F (CLss/F) (converted)): 38.7 mL/min/kg
- Cmax (female, rat, in vivo, po, 1000 mg/kg, Day 14, F, 1000 mg/kg PO, read-out: Cmax): 96.3 µg/mL
- Vd/F (female, rat, in vivo, po, 1000 mg/kg, Day 14, F, 1000 mg/kg PO, read-out: V/F (Vss/F)): 14 L/kg
- half-life (female, rat, in vivo, po, 1000 mg/kg, Day 14, F, 1000 mg/kg PO, read-out: t1/2 (converted)): 4.19 h
- AUC [6]: 736 µg·h/mL
- AUC(0-inf) [6]: 741 µg·h/mL
- CL/F (female, rat, in vivo, po, 1000 mg/kg, Day 28, F, 1000 mg/kg PO, read-out: CL/F (CLss/F) (converted)): 22.7 mL/min/kg
- Cmax (female, rat, in vivo, po, 1000 mg/kg, Day 28, F, 1000 mg/kg PO, read-out: Cmax): 128 µg/mL
- Vd/F (female, rat, in vivo, po, 1000 mg/kg, Day 28, F, 1000 mg/kg PO, read-out: V/F (Vss/F)): 6.26 L/kg
- half-life (female, rat, in vivo, po, 1000 mg/kg, Day 28, F, 1000 mg/kg PO, read-out: t1/2 (converted)): 3.2 h
- Tmax (female, rat, in vivo, po, 1000 mg/kg, Day 28, F, 1000 mg/kg PO, read-out: tmax): 1 h
- AUC [7]: 1160 µg·h/mL
- AUC(0-inf) [7]: 1320 µg·h/mL
- CL/F (female, rat, in vivo, po, 2000 mg/kg, Day 1, F, 2000 mg/kg PO, read-out: CL/F (CLz/F) (converted)): 25.2 mL/min/kg
- Cmax (female, rat, in vivo, po, 2000 mg/kg, Day 1, F, 2000 mg/kg PO, read-out: Cmax): 118 µg/mL
- Vd/F (female, rat, in vivo, po, 2000 mg/kg, Day 1, F, 2000 mg/kg PO, read-out: V/F (Vz/F)): 17.6 L/kg
- AUC [8]: 942 µg·h/mL
- AUC(0-inf) [8]: 952 µg·h/mL
- CL/F (female, rat, in vivo, po, 2000 mg/kg, Day 14, F, 2000 mg/kg PO, read-out: CL/F (CLss/F) (converted)): 35.3 mL/min/kg
- Cmax (female, rat, in vivo, po, 2000 mg/kg, Day 14, F, 2000 mg/kg PO, read-out: Cmax): 127 µg/mL
- Vd/F (female, rat, in vivo, po, 2000 mg/kg, Day 14, F, 2000 mg/kg PO, read-out: V/F (Vss/F)): 10.9 L/kg
- half-life (female, rat, in vivo, po, 2000 mg/kg, Day 14, F, 2000 mg/kg PO, read-out: t1/2 (converted)): 3.56 h
- Tmax (female, rat, in vivo, po, 2000 mg/kg, Day 14, F, 2000 mg/kg PO, read-out: tmax): 1 h
- AUC [9]: 1300 µg·h/mL
- AUC(0-inf) [9]: 1330 µg·h/mL
- CL/F (female, rat, in vivo, po, 2000 mg/kg, Day 28, F, 2000 mg/kg PO, read-out: CL/F (CLss/F) (converted)): 25.5 mL/min/kg
- Cmax (female, rat, in vivo, po, 2000 mg/kg, Day 28, F, 2000 mg/kg PO, read-out: Cmax): 139 µg/mL
